Assay results reported in the supplement of paper PMC10307832.

Experiments:
Experiment in all cases: relative viability (nuclei count vs DMSO), 5 days (fraction); higher = more cells survive
Kobe2602 + Vorinostat = compound: C1=CC(=CC=C1NC(=S)NNC2=C(C=C(C=C2[N+](=O)[O-])C(F)(F)F)[N+](=O)[O-])F [Kobe2602] + O=C(CCCCCCC(=O)Nc1ccccc1)NO [Vorinostat] (partner 1 µM)
Summary of the method: (§1)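 Lung cancer cell lines were pin-tool dosed in 1536-well plates on the day after seeding, with either a lone drug or a fixed anchor-drug dose plus five library-drug doses (not always all listed) in √10 steps. Nuclei were counted on 4× images after 5 days. Relative viability is the ratio of treated-well to vehicle-well nuclei counts, with each value a median of duplicate plates.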

Kobe2602 + Navitoclax = compound: C1=CC(=CC=C1NC(=S)NNC2=C(C=C(C=C2[N+](=O)[O-])C(F)(F)F)[N+](=O)[O-])F [Kobe2602] + CC1(C)CCC(c2ccc(Cl)cc2)=C(CN2CCN(c3ccc(C(=O)NS(=O)(=O)c4ccc(N[C@H](CCN5CCOCC5)CSc5ccccc5)c(S(=O)(=O)C(F)(F)F)c4)cc3)CC2)C1 [Navitoclax] (partner 0.5 µM)
Summary of the method: as §1

[1] = compound: COc1cc2nccc(Oc3ccc(NC(=O)C4(C(=O)Nc5ccc(F)cc5)CC4)cc3)c2cc1OC [Cabozantinib] + O=C(CCCCCCC(=O)Nc1ccccc1)NO [Vorinostat] (partner 1 µM)
Summary of the method: as §1

| Cell Line | relative viability (Kobe2602 + Vorinostat; first compound 0.2 µM) | relative viability (Kobe2602 + Vorinostat; first compound 0.6325 µM) | relative viability (Kobe2602 + Vorinostat; first compound 2 µM) | relative viability (Kobe2602 + Vorinostat; first compound 6.325 µM) | relative viability (Kobe2602 + Vorinostat; first compound 20 µM) | relative viability (Kobe2602 + Navitoclax; first compound 0.2 µM) | relative viability (Kobe2602 + Navitoclax; first compound 0.6325 µM) | relative viability (Kobe2602 + Navitoclax; first compound 2 µM) | relative viability (Kobe2602 + Navitoclax; first compound 6.325 µM) | relative viability (Kobe2602 + Navitoclax; first compound 20 µM) | relative viability ([1]; first compound 0.02 µM) | relative viability ([1]; first compound 0.06325 µM) | relative viability ([1]; first compound 0.2 µM) | relative viability ([1]; first compound 0.6325 µM) | relative viability ([1]; first compound 2 µM) |
| --- | --- | --- | --- | --- | --- | --- | --- | --- | --- | --- | --- | --- | --- | --- | --- |
| NCI-H1437 | 0.855 | 0.739 | 0.78 | 0.791 | 0.625 | 1.04 | 1.07 | 1.11 | 1.11 | 0.901 | 0.931 | 0.984 | 0.925 | 0.809 | 0.715 |
| NCI-H1650 | 0.598 | 0.617 | 0.642 | 0.539 | 0.527 | 1.08 | 1.33 | 0.948 | 1.36 | 1.22 | 0.655 | 0.643 | 0.519 | 0.586 | 0.543 |
| NCI-H1651 | 0.601 | 0.448 | 0.583 | 0.551 | 0.751 | 1.11 | 1.08 | 1.18 | 1.03 | 1.02 | 0.511 | 0.709 | 0.533 | 0.571 | 0.622 |
| NCI-H1666 | 1.06 | 1.04 | 1.13 | 1.01 | 0.981 | 1.02 | 0.982 |  | 0.77 | 0.924 | 1.09 | 1.1 | 1.02 | 1.04 | 0.95 |
| NCI-H1734 | 0.863 | 0.912 | 0.844 | 0.841 | 0.8 | 0.899 | 0.924 | 0.842 | 0.837 | 0.926 | 0.703 | 1.01 | 0.847 | 0.886 | 0.792 |
| NCI-H1755 | 0.743 | 0.743 | 0.671 | 0.744 | 0.802 | 0.999 | 0.995 | 0.969 | 0.96 | 0.926 | 0.765 | 0.792 | 0.83 | 0.739 | 0.705 |
| NCI-H1793 | 0.702 | 0.881 | 0.764 | 0.795 | 0.936 | 0.528 | 0.445 | 0.415 | 0.413 | 0.459 | 0.652 | 1.12 |  | 0.744 | 0.759 |
| NCI-H1915 | 0.523 | 0.549 | 0.478 | 0.534 | 0.557 | 0.796 | 0.827 | 0.797 | 0.791 | 0.795 | 0.525 | 0.548 | 0.511 | 0.522 | 0.473 |
| NCI-H1944 | 0.532 | 0.64 | 0.538 | 0.531 | 0.629 | 1.02 | 1.04 | 1.09 | 1.08 | 1.13 | 0.615 | 0.617 | 0.527 | 0.582 | 0.637 |
| NCI-H1975 | 0.68 | 0.74 | 0.626 | 0.678 | 0.701 | 1.08 | 0.955 | 0.968 | 1.1 | 0.928 | 0.754 | 0.833 | 0.773 | 0.728 | 0.651 |
| NCI-H1993 | 0.737 | 0.817 | 0.782 | 0.586 | 0.728 | 0.678 | 0.707 | 0.787 | 0.687 | 0.729 | 0.553 | 0.723 | 0.63 | 0.64 | 0.831 |
| NCI-H2009 | 0.715 | 0.783 | 0.763 | 0.752 | 0.692 | 1.19 | 1.25 | 1.14 | 1.19 | 1.14 | 0.701 | 0.855 | 0.744 | 0.809 | 0.748 |
| NCI-H2023 | 0.56 | 0.75 | 0.566 | 0.481 | 0.317 | 0.976 | 1.11 | 0.892 | 0.927 | 0.917 | 0.608 | 0.623 | 0.599 | 0.648 | 0.594 |
| NCI-H2085 | 0.772 | 0.817 | 0.794 | 0.765 | 0.733 | 1.2 | 1.16 | 1.08 | 1.23 | 1.14 | 0.851 | 0.92 | 0.725 | 0.797 | 0.74 |
| NCI-H2087 | 0.628 | 0.799 | 0.64 | 0.714 | 0.568 | 0.959 | 0.934 | 1.01 | 1.03 | 0.849 | 0.752 | 0.781 | 0.563 | 0.49 | 0.715 |
| NCI-H2126 | 0.811 | 0.819 | 0.737 | 0.76 | 0.855 | 0.883 | 0.888 | 0.799 | 0.776 | 0.788 | 0.471 | 0.773 | 0.777 | 0.784 | 0.798 |
| NCI-H2170 | 0.765 | 0.813 | 0.732 | 0.717 | 0.84 | 0.65 | 0.597 | 0.56 | 0.57 | 0.622 | 0.818 | 0.821 | 0.704 | 0.847 | 0.914 |
| NCI-H2228 | 0.649 | 0.744 | 0.522 | 0.425 | 0.611 | 1.08 | 0.621 | 0.69 | 0.743 | 0.841 | 0.732 | 1.05 | 0.763 | 0.74 | 0.707 |
| NCI-H2347 | 0.523 | 0.696 | 0.732 | 0.661 | 0.705 | 0.697 | 0.82 | 0.753 | 0.789 | 0.807 | 0.525 | 0.525 | 0.627 | 0.469 | 0.391 |
| NCI-H2405 | 1.05 | 1.34 | 0.998 | 1.04 | 1.02 | 0.82 | 0.847 | 0.783 | 1.06 | 0.987 | 0.846 | 1.25 | 1.01 | 0.986 | 1.07 |
| NCI-H3122 | 0.986 | 0.701 | 0.979 | 0.855 | 1.06 | 1.05 | 0.971 | 1.02 | 1.02 | 1.03 | 0.992 | 1 | 1.07 | 1.11 | 1.02 |
| PC-3 [JPC-3] | 0.943 | 1.1 | 0.787 | 0.874 | 0.771 | 0.833 | 0.775 | 0.76 | 0.847 | 0.717 | 0.694 | 1.1 |  | 0.816 | 1.02 |
| PC-14 | 0.637 | 0.788 | 0.739 | 0.75 | 0.413 | 0.978 | 1.04 | 0.982 | 1.03 | 0.971 | 0.691 | 0.956 |  | 0.692 | 0.748 |
| RERF-LC-KJ | 0.679 | 0.69 | 0.671 | 0.665 | 0.509 | 0.804 | 0.993 | 0.856 | 0.971 | 0.858 | 0.65 | 0.768 | 0.666 | 0.801 | 0.75 |
| SK-LU-1 | 0.734 | 0.86 | 0.856 | 0.836 | 0.823 | 0.818 | 0.984 | 0.713 | 1.01 | 0.967 | 0.719 | 1.04 | 0.755 | 0.797 | 0.72 |
| SK-MES-1 | 1.03 | 1.11 | 1.01 | 0.97 | 0.585 | 1.14 | 1.23 | 1.09 | 1.19 | 1.23 | 1.06 | 1.27 | 1.16 | 1.11 | 1.16 |
| SW 1573 | 0.743 | 0.868 | 0.676 | 0.868 | 0.77 | 1.05 | 1.14 | 0.96 | 1.02 | 0.946 | 0.757 | 0.844 | 0.961 | 0.898 | 0.906 |
